“Also recorded” adds a separate entry of the source. Where a SMILES comes first, the peptide text is derived from it.
Assays:
human Fzd-2 = molecular target: T1, human Fzd-2 (Homo sapiens, UniProt Q14332); assay: Antagonism of Wnt3a activation of human Fzd-2 (data not shown); type: cell-based
T1 construct: expressed in transfected cells
Excerpt: (§1) In FIG. 3, Panel E, the efficacy of UM206 to block the Wnt3a-induced activation of luciferase activity in HEK293 superTOPflash cells transfected with different Fzds is shown.

hFzd-4 = molecular target: T2, hFzd-4 (Homo sapiens, UniProt Q9ULV1); assay: Luciferase activity in HEK293 superTOPflash cells overexpressing hFzd-4; type: cell-based; conditions: 1.10^−8 M
T2 construct: expressed in transfected cells; host or cells: HEK293 superTOPflash, transient, pcDNA3.1/hygro
T2 sequence (Q9ULV1 37-537): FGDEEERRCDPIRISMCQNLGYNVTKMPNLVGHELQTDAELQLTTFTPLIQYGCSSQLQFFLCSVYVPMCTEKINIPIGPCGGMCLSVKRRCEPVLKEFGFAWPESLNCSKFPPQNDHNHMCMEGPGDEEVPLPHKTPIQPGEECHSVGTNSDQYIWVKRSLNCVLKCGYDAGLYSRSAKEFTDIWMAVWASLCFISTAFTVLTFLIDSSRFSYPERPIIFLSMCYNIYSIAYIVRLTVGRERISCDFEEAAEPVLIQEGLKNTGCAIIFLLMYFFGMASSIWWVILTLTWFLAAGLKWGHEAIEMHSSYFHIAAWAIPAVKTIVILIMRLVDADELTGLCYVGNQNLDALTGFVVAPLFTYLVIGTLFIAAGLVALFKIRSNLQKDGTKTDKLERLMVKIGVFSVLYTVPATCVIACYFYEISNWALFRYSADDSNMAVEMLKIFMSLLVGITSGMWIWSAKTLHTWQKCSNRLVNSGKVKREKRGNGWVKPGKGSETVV
Method: as §1
The cell lines were cultured in 75 cm^2 culture flasks (Corning, Schiphol, the Netherlands) in Dulbeco's modified essential medium with L-glutamine (2 mM), 10% fetal calf serum (Invitrogen, Merelbeke, Belgium), and 1% gentamycin (Sigma-Aldrich, Zwijndrecht, The Netherlands). Before starting the experiment, the cell lines were treated with plasmocin 25 μg/ml (Invivogen, Toulose, France) and tested with a mycoalert mycoplasma detection kit (Lonza, Rockland Me., USA). Cells were transiently transfected with Fugene6 (Roche, Indianapolis Ind., USA) with plasmid DNA, pcDNA3.1/hygro (Invitrogen) with frizzled-1/2/4 or Wnts 3a-5a or with pcDNA3.0 (Invitrogen) containing the β-catenin or frizzled-5 sequence. After transfection, the cells were cultured for 24 hours in conditioned medium, collected from the cultured L-cells, L-cells with Wnt3a or 5a (Invitrogen). At the same moment the antagonist was added.

C-FIT cells = assay: Differentiation assay (α-SMA) with C-FIT cells; type: cell-based, rat
Excerpt: For this assay, we used the same C-FIT cells as for the migration assay to study a second component of wound healing, namely, differentiation of fibroblasts into myofibroblasts. When wound healing starts, cells called fibroblasts migrate into the scar. These cells have no contractile properties; however, they can differentiate into myofibroblasts, which can actively contract. To study which signals influence the transition from fibroblast into myofibroblasts, we treated the C-FIT cells and harvested them for mRNA isolation. Next, we tested them for the presence of specific markers for myofibroblasts by reverse transcription of the mRNA and subsequent quantitative PCR analysis, which are absent in fibroblasts. One of those markers is α-smooth muscle actin, which makes the cells contract.
(§2) RNA was isolated using the Trizol method (Invitrogen). For the RT-PCR, the RNA was transcribed to cDNA with iscript™ cDNA synthesis kit (Bio-Rad, Hercules Calif., USA), Syber green (Eurogentec, Ghent, Belgium) was used for the detection of cDNA levels and cyclophilin served as the house keeping gene. In Supplementary methods panel 5, the primer sequences are shown.

[1] = tested on: C-FIT cells (cardiac fibroblasts immortalized with telomerase); assay: Migration (wound/scratch) assay with C-FIT cells overexpressing Fzd-1 or -2; type: cell-based, rat
Method: For this assay, we used rat cardiac fibroblasts, which were immortalized with telomerase, the C-FIT cell line. This cell line was characterized previously and resembles features of primary cardiac fibroblasts. C-FIT cells were plated, treated when they were 70% confluent and a wound was made with a pipette tip at the moment of 100% confluence.
This assay was first tested with the natural ligand Wnt3a, in combination with frizzled-1 and -2 overexpression. […] Next step was to see whether the antagonist could counteract this. (See FIG. 4.)
Day 1: • Plate cells in 12-well plates
Day 2: • Transfection (see protocol)
Day 3: • Addition of conditioned medium
Day 4: • Make a scratch. This is time point zero.
Making pictures every six hours and analyzing the scratch width.
Cells were plated on day 0, and cultured until 70% confluence before transfection or treatment. Migration assays started 48 hours after transfection and/or treatment. The time point where the scratch was made, is indicated as 0 hours. Scratch width was measured at this time point, and also after 6, 12, and 24 hours.

kidney = assay: qPCR of Wnt target genes in kidney after long-term UM206 administration; type: in vivo, mice; design: key to Rel. exp. Col I / Rel. exp. DDK 2 / Rel. exp. DDK 3 / Rel. exp. Twist: expression normalized to cyclophilin housekeeping gene; key to Rel. exp. α-SMA / Rel. exp. DDK 1 / Rel. exp. α-actin / Rel. exp. LEF / Rel. exp. FN: relative expression, cyclophilin as housekeeping gene
Excerpt: as §2

T1 sequence (Q14332 24-565): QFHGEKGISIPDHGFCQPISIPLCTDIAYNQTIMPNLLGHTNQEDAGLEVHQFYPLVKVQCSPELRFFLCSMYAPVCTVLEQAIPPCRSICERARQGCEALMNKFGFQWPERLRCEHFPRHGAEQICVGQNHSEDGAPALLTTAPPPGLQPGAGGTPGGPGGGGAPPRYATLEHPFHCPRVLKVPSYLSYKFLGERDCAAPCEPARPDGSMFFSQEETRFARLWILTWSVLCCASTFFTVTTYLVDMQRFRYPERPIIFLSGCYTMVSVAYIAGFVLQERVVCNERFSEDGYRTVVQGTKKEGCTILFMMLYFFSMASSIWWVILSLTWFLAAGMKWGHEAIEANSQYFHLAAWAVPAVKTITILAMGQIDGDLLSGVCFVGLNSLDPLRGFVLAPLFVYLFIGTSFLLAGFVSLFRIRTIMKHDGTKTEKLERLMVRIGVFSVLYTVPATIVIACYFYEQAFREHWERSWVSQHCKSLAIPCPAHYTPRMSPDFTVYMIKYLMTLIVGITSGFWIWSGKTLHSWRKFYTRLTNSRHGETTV

CSCC[C@H](NC(=O)CNC(=O)[C@H](CCC(=O)O)NC(=O)[C@H](CO)NC(=O)[C@@H](NC(=O)[C@H](CCCCN)NC(=O)[C@H](CC(N)=O)NC(=O)[C@H](CS)NC(C)=O)[C@@H](C)O)C(=O)N[C@@H](CC(=O)O)C(=O)NCC(=O)N[C@@H](CS)C(=O)N[C@@H](CCC(=O)O)C(=O)N[C@@H](CC(C)C)C(N)=O [UM206, Ac-Cys-Asn-Lys-Thr-Ser-Glu-Gly-Met-Asp-Gly-Cys-Glu-Leu-NH2] (Ac-CNKTSEGMDGCEL-NH2)
Antagonizing activation of human Fzd-2 by Wnt3a (human Fzd-2): fully effective
Effect on Wnt3a-induced luciferase activity, frizzled-4 (hFzd-4): no effect
Effect on Wnt3a/5a-induced differentiation (α-SMA levels) (C-FIT cells): completely blocks this differentiation
effect of UM206 alone on cell migration [1]: no effect
Counteraction of Wnt3a/Wnt5a-induced attenuation of migration ([1]; UM206 1.10^−8 M, Fzd-1 or -2 overexpression): migration was reset to the migration speed of the control; also recorded: blocked completely; also recorded: block this effect completely
influence on gene expression in the kidney (kidney; UM206 for five weeks): These data indicate that UM206 had no influence on gene expression in the kidney.
Rel. exp. Col I (kidney; kidney): 1.39
Rel. exp. DDK 1 (kidney; kidney): 1.87
Rel. exp. DDK 2 (kidney; kidney): 1.44
Rel. exp. DDK 3 (kidney; kidney): 0.87
Rel. exp. FN (kidney; kidney): 1.66
Rel. exp. LEF (kidney; kidney): 1.70
Rel. exp. Twist (kidney; kidney): 1.49
Rel. exp. α-SMA (kidney; kidney): 1.21
Rel. exp. α-actin (kidney; kidney): 1.06

Reference: patent US8598122B2, “Antagonistic peptides for frizzled-1 and frizzled-2” (Universiteit Maastricht, priority 2009, dated 2013)
